Experimental data from US10023570B2 (Array BioPharma, Inc., priority 2015, dated 2018).

Biological target: human KDR protein in HEK-293 cells (Homo sapiens (Human), UniProt P35968)
Test: KDR Cell Assay (phospho-KDR in HEK-293 cells expressing inducible KDR)
Format: cell-based
Conditions: pKDR Cell HEK 10% FBS IC50, HEK-293 cells expressing inducible KDR, VEGF stimulated
In short: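 HEK-293 cells with inducible human KDR were treated with compound for 1 h in DMEM (0.25% DMSO final), then lysed. Phospho-KDR was quantified by Meso Scale immunoassay, expressed as percent of control, and IC50 taken where a 4-parameter logistic fit crossed 50 POC.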

Chain of human KDR protein in HEK-293 cells (P35968 20-1356): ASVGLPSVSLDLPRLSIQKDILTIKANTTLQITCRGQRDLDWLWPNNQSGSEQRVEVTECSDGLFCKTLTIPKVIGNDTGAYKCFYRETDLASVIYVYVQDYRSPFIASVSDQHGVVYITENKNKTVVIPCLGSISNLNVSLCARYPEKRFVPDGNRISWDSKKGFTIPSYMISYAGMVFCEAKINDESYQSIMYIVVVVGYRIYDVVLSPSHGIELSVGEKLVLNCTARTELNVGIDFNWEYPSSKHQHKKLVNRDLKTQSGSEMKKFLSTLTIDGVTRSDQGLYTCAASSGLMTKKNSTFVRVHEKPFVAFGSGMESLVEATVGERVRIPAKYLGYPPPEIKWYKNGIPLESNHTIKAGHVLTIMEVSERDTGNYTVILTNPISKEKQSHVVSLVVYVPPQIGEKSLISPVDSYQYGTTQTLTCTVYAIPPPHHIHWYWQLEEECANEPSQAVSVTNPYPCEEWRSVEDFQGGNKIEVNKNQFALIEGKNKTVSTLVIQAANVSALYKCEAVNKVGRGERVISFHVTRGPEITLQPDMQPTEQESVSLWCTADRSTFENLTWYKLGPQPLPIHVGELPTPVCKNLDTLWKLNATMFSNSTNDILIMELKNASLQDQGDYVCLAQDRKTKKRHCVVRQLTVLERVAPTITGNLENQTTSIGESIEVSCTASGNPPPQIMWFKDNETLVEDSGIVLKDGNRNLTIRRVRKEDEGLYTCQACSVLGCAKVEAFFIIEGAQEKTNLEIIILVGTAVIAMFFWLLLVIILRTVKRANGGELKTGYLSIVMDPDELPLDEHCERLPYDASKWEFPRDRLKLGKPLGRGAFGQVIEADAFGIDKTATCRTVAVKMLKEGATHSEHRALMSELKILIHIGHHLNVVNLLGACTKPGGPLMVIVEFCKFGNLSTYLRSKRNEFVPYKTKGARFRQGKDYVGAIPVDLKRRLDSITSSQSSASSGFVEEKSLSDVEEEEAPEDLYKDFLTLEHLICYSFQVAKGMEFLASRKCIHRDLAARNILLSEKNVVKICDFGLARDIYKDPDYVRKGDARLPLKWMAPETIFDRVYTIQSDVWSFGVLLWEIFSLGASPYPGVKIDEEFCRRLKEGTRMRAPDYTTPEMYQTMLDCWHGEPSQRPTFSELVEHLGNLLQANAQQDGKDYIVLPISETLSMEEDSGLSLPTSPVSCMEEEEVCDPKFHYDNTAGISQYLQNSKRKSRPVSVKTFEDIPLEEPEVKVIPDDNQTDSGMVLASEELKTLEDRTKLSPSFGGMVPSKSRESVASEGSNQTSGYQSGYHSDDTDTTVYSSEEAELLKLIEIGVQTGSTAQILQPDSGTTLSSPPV

| IC50 [nM] | SMILES |
| --- | --- |
| 129 | CN(C)c1ccc(CN2CCN(c3ccc(-c4cc(-c5cnn(C)c5)cn5ncc(C#N)c45)cn3)CC2)cc1 [Example 461, 4-(6-(4-(4-(dimethylamino)benzyl)piperazin-1-yl)pyridin-3-yl)-6-(1-methyl-1H-pyrazol-4-yl)pyrazolo[1,5-a]pyridine-3-carbonitrile] |
| 804 | Cn1cc(-c2cc(-c3ccc(N4CCN(Cc5ccc(F)cn5)CC4)nc3)c3c(C#N)cnn3c2)cn1 [Example 462, 4-(6-(4-((5-fluoropyridin-2-yl)methyl)piperazin-1-yl)pyridin-3-yl)-6-(1-methyl-1H-pyrazol-4-yl)pyrazolo[1,5-a]pyridine-3-carbonitrile] |
| 2160 | Cn1cc(-c2cc(-c3ccc(N4CCN(CC5CCOCC5)CC4)nc3)c3c(C#N)cnn3c2)cn1 [Example 466, 6-(1-methyl-1H-pyrazol-4-yl)-4-(6-(4-((tetrahydro-2H-pyran-4-yl)methyl)piperazin-l-yl)pyridin-3-yl)pyrazolo[1,5-a]pyridine-3-carbonitrile] |
| 1540 | Cc1nccc(CN2CCN(c3ccc(-c4cc(-c5cnn(C)c5)cn5ncc(C#N)c45)cn3)CC2)n1 [Example 467, 6-(1-methyl-1H-pyrazol-4-yl)-4-(6-(4-((2-methylpyrimidin-4-yl)methyl)piperazin-l-yl)pyridin-3-yl)pyrazolo[1,5-a]pyridine-3-carbonitrile] |
| 1580 | Cn1cc(-c2cc(-c3ccc(N4CCN(Cc5cccnc5)CC4)nc3)c3c(C#N)cnn3c2)cn1 [Example 471, 6-(1-methyl-1H-pyrazol-4-yl)-4-(6-(4-(pyridin-3-ylmethyl)piperazin-1-yl)pyridine-3-yl)pyrazolo[1,5-a]pyridine-3-carbonitrile] |
| 1770 | Cn1cc(-c2cc(-c3ccc(N4CCN(Cc5ncccn5)CC4)nc3)c3c(C#N)cnn3c2)cn1 [Example 472, 6-(1-methyl-1H-pyrazol-4-yl)-4-(6-(4-(pyrimidin-2-ylmethyl)piperazin-1-yl)pyridin-3-yl)pyrazolo[1,5-a]pyridine-3-carbonitrile] |
| 968 | Cn1cc(-c2cc(-c3ccc(N4CCN(Cc5ccccn5)CC4)nc3)c3c(C#N)cnn3c2)cn1 [Example 473, 6-(1-methyl-1H-pyrazol-4-yl)-4-(6-(4-(pyridine-2-ylmethyl)piperazin-1-yl)pyridin-3-yl)pyrazolo[1,5-a]pyridine-3-carbonitrile] |
| 305 | COc1ccc(CN2CCN(c3ccc(-c4cc(-c5cnn(C)c5)cn5ncc(C#N)c45)cn3)CC2)cn1 [Example 474, 4-(6-(4-((6-methoxypyridin-3-yl)methyl)piperazin-1-yl)pyridin-3-yl)-6-(1-methyl-1H-pyrazol-4-yl)pyrazolo[1,5-a]pyridine-3-carbonitrile] |
| 77.1 | Cn1cc(-c2cc(-c3ccc(N4C[C@@H]5C[C@H]4CN5Cc4ccccc4)nc3)c3c(C#N)cnn3c2)cn1 [Example 483, 4-(6-((1S,4S)-5-benzyl-2,5-diazabicyclo[2.2.1]heptan-2-yl)pyridin-3-yl)-6-(1-methyl-1H-pyrazol-4-yl)pyrazolo[1,5-a]pyridine-3-carbonitrile] |
| 4800 | Cn1cc(-c2cc(-c3ccc(N4CC5(CCN(Cc6ccccc6)CC5)C4)nc3)c3c(C#N)cnn3c2)cn1 [Example 485, 4-(6-(7-benzyl-2,7-diazaspiro[3.5]nonan-2-yl)pyridin-3-yl)-6-(1-methyl-1H-pyrazol-4-yl)pyrazolo[1,5-a]pyridine-3-carbonitrile] |
| 563 | Cn1cc(-c2cc(-c3ccc(N4CCC5(CC4)CN(C(=O)C4CC4)C5)nc3)c3c(C#N)cnn3c2)cn1 [Example 492, 4-(6-(2-(cyclopropanecarbonyl)-2,7-diazaspiro[3.5]nonan-7-yl)pyridin-3-yl)-6-(1-methyl-1H-pyrazol-4-yl)pyrazolo[1,5-a]pyridine-3-carbonitrile] |
| 928 | Cn1cc(-c2cc(-c3ccc(N4CCC5(CC4)CN(C(=O)C4CCC4)C5)nc3)c3c(C#N)cnn3c2)cn1 [Example 493, 4-(6-(2-(cyclobutanecarbonyl)-2,7-diazaspiro[3.5]nonan-7-yl)pyridin-3-yl)-6-(1-methyl-1H-pyrazol-4-yl)pyrazolo[1,5-a]pyridine-3-carbonitrile] |
| 1830 | CN(C)CC(=O)N1CC2(CCN(c3ccc(-c4cc(-c5cnn(C)c5)cn5ncc(C#N)c45)cn3)CC2)C1 [Example 494, 4-(6-(2-(2-(dimethylamino)acetyl)-2,7-diazaspiro[3.5]nonan-7-yl)pyridin-3-yl)-6-(1-methyl-1H-pyrazol-4-yl)pyrazolo[1,5-a]pyridine-3-carbonitrile] |
| 771 | Cn1cc(-c2cc(-c3ccc(N4CCC5(CC4)CN(C(=O)C4CCCCC4)C5)nc3)c3c(C#N)cnn3c2)cn1 [Example 495, 4-(6-(2-(cyclohexanecarbonyl)-2,7-diazaspiro[3.5]nonan-7-yl)pyridin-3-yl)-6-(1-methyl-1H-pyrazol-4-yl)pyrazolo[1,5-a]pyridine-3-carbonitrile] |
| 2120 | CCC(CC)C(=O)N1CC2(CCN(c3ccc(-c4cc(-c5cnn(C)c5)cn5ncc(C#N)c45)cn3)CC2)C1 [Example 496, 4-(6-(2-(2-ethylbutanoyl)-2,7-diazaspiro[3.5]nonan-7-yl)pyridin-3-yl)-6-(1-methyl-1H-pyrazol-4-yl)pyrazolo[1,5-a]pyridine-3-carbonitrile] |
| 462 | Cn1cc(-c2cc(-c3ccc(N4CCC5(CC4)CN(C(=O)OC4CCCC4)C5)nc3)c3c(C#N)cnn3c2)cn1 [Example 499, Cyclopentyl 7-(5-(3-cyano-6-(1-methyl-1H-pyrazol-4-yl)pyrazolo[1,5-a]pyridin-4-yl)pyridine-2-yl)-2,7-diazaspiro[3.5]nonane-2-carboxylate] |
| 458 | Cn1cc(-c2cc(-c3ccc(N4CCC5(CC4)CN(C(=O)N4CCCC4)C5)nc3)c3c(C#N)cnn3c2)cn1 [Example 500, 6-(1-methyl-1H-pyrazol-4-yl)-4-(6-(2-(pyrrolidine-1-carbonyl)-2,7-diazaspiro[3.5]nonan-7-yl)pyridin-3-yl)pyrazolo[1,5-a]pyridine-3-carbonitrile] |
| 554 | CN(C)C(=O)N1CC2(CCN(c3ccc(-c4cc(-c5cnn(C)c5)cn5ncc(C#N)c45)cn3)CC2)C1 [Example 501, 7-(5-(3-cyano-6-(1-methyl-1H-pyrazol-4-yl)pyrazolo[1,5-a]pyridin-4-yl)pyridin-2-yl)-N,N-dimethyl-2,7-diazaspiro[3.5]nonane-2-carboxamide] |
| 437 | CCN(CC)C(=O)N1CC2(CCN(c3ccc(-c4cc(-c5cnn(C)c5)cn5ncc(C#N)c45)cn3)CC2)C1 [Example 502, 7-(5-(3-cyano-6-(1-methyl-1H-pyrazol-4-yl)pyrazolo[1,5-a]pyridin-4-yl)pyridin-2-yl)-N,N-diethyl-2,7-diazaspiro[3.5]nonane-2-carboxamide] |
| 2070 | Cn1cc(-c2cc(-c3ccc(N4CCC5(CCCN(C(=O)OC(C)(C)C)C5)CC4)nc3)c3c(C#N)cnn3c2)cn1 [Example 504, tert-Butyl 9-(5-(3-cyano-6-(1-methyl-1H-pyrazol-4-yl)pyrazolo[1,5-a]pyridin-4-yl)pyridine-2-yl)-2,9-diazaspiro[5.5]undecane-2-carboxylate] |
| 24.9 | Cn1cc(-c2cc(-c3ccc(N4CCC(Nc5ccccc5)CC4)nc3)c3c(C#N)cnn3c2)cn1 [Example 507, 6-(1-methyl-1H-pyrazol-4-yl)-4-(6-(4-(phenylamino)piperidin-1-yl)pyridin-3-yl)pyrazolo[1,5-a]pyridine-3-carbonitrile] |
| 2.9 | Cn1cc(-c2cc(-c3ccc(N4CCC(Oc5ccccc5)CC4)nc3)c3c(C#N)cnn3c2)cn1 [Example 508] |
| 9.2 | Cn1cc(-c2cc(-c3ccc(N4CCC(Oc5ccc(Cl)cc5)CC4)nc3)c3c(C#N)cnn3c2)cn1 [Example 509, 4-(6-(4-(4-chlorophenoxy)piperidin-1-yl)pyridin-3-yl)-6-(1-methyl-1H-pyrazol-4-yl)pyrazolo[1,5-a]pyridine-3-carbonitrile] |
| 1050 | Cn1cc(-c2cc(-c3ccc(N4CCC5(CCN(C(=O)OC(C)(C)C)CC5)CC4)nc3)c3c(C#N)cnn3c2)cn1 [Example 511, tert-butyl 9-(5-(3-cyano-6-(1-methyl-1H-pyrazol-4-yl)pyrazolo[1,5-a]pyridin-4-yl)pyridin-2-yl)-3,9-diazaspiro[5.5]undecane-3-carboxylate] |

| SMILES | IC50 [nM] |
| --- | --- |
| Cn1cc(-c2cc(-c3ccc(N4CC5CCC(C4)N5Cc4ccccc4)nc3)c3c(C#N)cnn3c2)cn1 [Example 484, 4-(6-(8-benzyl-3,8-diazabicyclo[3.2.1]octan-3-yl)pyridin-3-yl)-6-(1-methyl-1H-pyrazol-4-yl)pyrazolo[1,5-a]pyridine-3-carbonitrile] | 209 |
| Cn1cc(-c2cc(-c3ccc(N4CC5CC(C4)N5Cc4ccccc4)nc3)c3c(C#N)cnn3c2)cn1 [Example 489, 4-(6-(6-benzyl-3,6-diazabicyclo[3.1.1]heptan-3-yl)pyridin-3-yl)-6-(1-methyl-1H-pyrazol-4-yl)pyrazolo[1,5-a]pyridine-3-carbonitrile] | 19.5 |
| Cn1cc(-c2cc(-c3ccc(N4C5CC4CN(Cc4ccccc4)C5)nc3)c3c(C#N)cnn3c2)cn1 [Example 490, 4-(6-(3-benzyl-3,6-diazabicyclo[3.1.1]heptan-6-yl)pyridin-3-yl)-6-(1-methyl-1H-pyrazol-4-yl)pyrazolo[1,5-a]pyridine-3-carbonitrile] | 619 |
| Cn1cc(-c2cc(-c3ccc(N4C5CCC4CN(Cc4ccccc4)C5)nc3)c3c(C#N)cnn3c2)cn1 [Example 491, 4-(6-(3-benzyl-3,8-diazabicyclo[3.2.1]octan-8-yl)pyridin-3-yl)-6-(1-methyl-1H-pyrazol-4-yl)pyrazolo[1,5-a]pyridine-3-carbonitrile] | 120 |
| Cn1cc(-c2cc(-c3ccc(N4CCN(C5CCOC5)CC4)nc3)c3c(C#N)cnn3c2)cn1 (centres unmarked) [Example 505, 6-(1-methyl-1H-pyrazol-4-yl)-4-(6-(4-(tetrahydrofuran-3-yl)piperazin-1-yl)pyridin-3-yl)pyrazolo[1,5-a]pyridine-3-carbonitrile bis(2,2,2-trifluoroacetate)] | 1300 |
